The target in one series is T1, TAAR1 (Homo sapiens, UniProt Q96RJ0).
T1 sequence (Q96RJ0 1-339): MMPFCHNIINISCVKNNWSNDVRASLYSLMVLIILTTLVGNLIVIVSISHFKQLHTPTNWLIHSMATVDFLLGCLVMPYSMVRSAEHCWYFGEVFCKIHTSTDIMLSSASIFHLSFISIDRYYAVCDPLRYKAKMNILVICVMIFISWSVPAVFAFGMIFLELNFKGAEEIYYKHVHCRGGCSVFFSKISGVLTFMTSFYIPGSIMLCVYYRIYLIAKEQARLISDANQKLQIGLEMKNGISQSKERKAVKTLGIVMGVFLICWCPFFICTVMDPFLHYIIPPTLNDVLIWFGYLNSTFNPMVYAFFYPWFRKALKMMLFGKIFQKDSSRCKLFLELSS
Nature of the series: BRET-based cellular cAMP (EPAC biosensor) assay of TAAR1 agonism in transfected HEK-293 cells. As to conditions: for Emax: maximum observed activation of TAAR1 relative to that observed for 1 μM of β-PEA: relative to 1 μM β-PEA, mean from 3 BRET assays, errors ±5–10%; for Emax: HEK293, read-out: Emax: maximum observed activation of TAAR1 relative to that observed for 1 μM of β-PEA. For orientation: In BRET a luciferase serves as donor, and the signal depends on an acceptor being close.

Where [1] appears, read: TAAR1 activation, BRET assay, HEK-293, mean from 3 assays.

Read-outs that look alike come from different tables or passages of the source.

Method for TAAR1: The Bioluminescence Resonance Energy Transfer approach (BRET) has been used for functional activity experiments. HEK-293 cells were transiently transfected with cDNA for TAARs and cAMP BRET biosensor (EPAC) and then plated in a 96-well plate, as described [23]. All compounds were tested at the initial concentration of 10 µM. […] A natural agonist of TAAR1 β-phenylethylamine (β-PEA) was used as a positive control.

On to “2-(5-(2-[3,4-Difluorophenoxy]phenyl)-4H-1,2,4-triazol-3-yl) Hydrochloride [Compound 50]”, for which the EC50 – broadly, the concentration that produces a half-maximal response – at TAAR1 (setting [1]) is “inactive”. In addition, the “Emax: maximum observed activation of TAAR1 relative to that observed for 1 μM of β-PEA” value at TAAR1 was “inactive”.

“2-(5-(3-Methyl-4-[([4-(trifluoromethyl)benzyl]oxy)phenyl]-4H-1,2,4-triazol-3-yl)) Hydrochloride [Compound 49]”: the EC50 entry at TAAR1 (setting [1]) is “inactive”. The “Emax: maximum observed activation of TAAR1 relative to that observed for 1 μM of β-PEA” value on TAAR1 was “inactive”.

The compound “2-(5-(4-Ethylphenyl)-4H-1,2,4-triazol-3-yl)ethan-1-amine Hydrochloride [Compound 26]” yielded an EC50 on TAAR1 (setting [1]) greater than 1000 nM. The “Emax: maximum observed activation of TAAR1 relative to that observed for 1 μM of β-PEA” value on TAAR1 came to 71.

Turning to `COc1ccc(-c2nnc(CCN)[nH]2)cc1.Cl` [Compound 6, 2-(5-(4-Methoxyphenyl)-4H-1,2,4-triazol-3-yl)ethan-1-amine Hydrochloride], the melting point (usually the temperature of the solid-liquid transition) was in the range of 248 to 250 °C. For the same compound, on TAAR1, the EC50 was greater than 1000 nM and the Emax (in general, the size of the effect at its maximum, as opposed to the concentration needed) was determined as 56%.

`COc1cccc(-c2nnc(CCN)[nH]2)c1.Cl` [Compound 7, 2-(5-(3-Methoxyphenyl)-4H-1,2,4-triazol-3-yl)ethan-1-amine Hydrochloride] gave a melting point of 235 to 236 °C. For the same compound, at TAAR1, it took 910 nM to reach a half-maximal effect (EC50) and the Emax was 132%.

For `Cl.NCCc1nnc(-c2cccc(C(F)(F)F)c2)[nH]1` [Compound 8, 2-(5-(3-[Trifluoromethyl]phenyl)-4H-1,2,4-triazol-3-yl)ethan-1-amine Hydrochloride], the half-maximal effective concentration (EC50) at TAAR1 (setting [1]) is 210 nM. Moreover, the “Emax: maximum observed activation of TAAR1 relative to that observed for 1 μM of β-PEA” value at TAAR1 was 108.

`Cl.NCCc1nnc(-c2ccc(OC(F)(F)F)cc2)[nH]1` [Compound 9, 2-(5-(4-[Trifluoromethoxy]phenyl)-4H-1,2,4-triazol-3-yl)ethan-1-amine Hydrochloride] registered a melting point of 253 to 254 °C. At TAAR1, the EC50 turned out to be 310 nM and the Emax was 116%.

As for `Cl.NCCc1nnc(-c2ccncc2)[nH]1` [Compound 10, 2-(5-(Pyridin-4-yl)-4H-1,2,4-triazol-3-yl)ethan-1-amine Hydrochloride], the melting point is 257 to 258 °C. Further, on TAAR1, the Emax is 47%. The EC50 at TAAR1 (setting [1]) was greater than 1000 nM.

`COc1ccc(-c2nnc(CCN)[nH]2)cc1OC.Cl` [Compound 11, 2-(5-(3,4-Dimethoxyphenyl)-4H-1,2,4-triazol-3-yl)ethan-1-amine Hydrochloride] gave a melting point of 209 to 210 °C. Besides, the EC50 result at TAAR1 (setting [1]) is “inactive”. In addition, on TAAR1, the “Emax: maximum observed activation of TAAR1 relative to that observed for 1 μM of β-PEA” value is “inactive”.

In the case of `Cl.NCCc1nnc(-c2cccc(C(F)(F)F)c2)[nH]1` [Compound 18], the EC50 result at TAAR1 (setting [1]) was “inactive”. The “Emax: maximum observed activation of TAAR1 relative to that observed for 1 μM of β-PEA” value at TAAR1 was “inactive”.

As to `CN(C)c1cccc(-c2nnc(CCN)[nH]2)c1.Cl` [Compound 24, 3-(5-(2-Aminoethyl)-4H-1,2,4-triazol-3-yl)-N,N-dimethylaniline Hydrochloride], on TAAR1 (setting [1]), the EC50 entry was “inactive”. Further, the “Emax: maximum observed activation of TAAR1 relative to that observed for 1 μM of β-PEA” value at TAAR1 is “inactive”.

Turning to `Cl.NCCc1nnc(-c2ccccc2[N+](=O)[O-])[nH]1` [Compound 27, 2-(5-(2-Nitrophenyl)-4H-1,2,4-triazol-3-yl)ethan-1-amine Hydrochloride], on TAAR1 (setting [1]), the EC50 was greater than 1000 nM. In addition, the “Emax: maximum observed activation of TAAR1 relative to that observed for 1 μM of β-PEA” value on TAAR1 was determined as 69.

The compound `Cl.NCCc1nnc(-c2cccc(-c3ccc(F)cc3F)c2)[nH]1` [Compound 66, 2-(5-(4′-(2′,4′-Difluoro-(1,1′-biphenyl)-3-yl)-4H-1,2,4-triazol-3-yl)ethan-1-amine Hydrochloride] had an EC50 on TAAR1 (setting [1]) of 300 nM.

As for `Cl.NCCc1nnc(-c2cccc(-c3ccc(F)cc3F)c2)[nH]1` [Compound 66], the “Emax: maximum observed activation of TAAR1 relative to that observed for 1 μM of β-PEA” value on TAAR1 is 91.

The values are drawn from PMC9687812, “Discovery of Trace Amine-Associated Receptor 1 (TAAR1) Agonist 2-(5-(4′-Chloro-[1,1′-biphenyl]-4-yl)-4H-1,2,4-triazol-3-yl)ethan-1-amine (LK00764) for the Treatment of Psychotic Disorders” (Biomolecules, 2022).
